Data taken from US8362000B2, “Azetidinyl diamides as monoacylglycerol lipase inhibitors” (Janssen Pharmaceutica NV, priority 2009, dated 2013).
Numbering of substitutions follows the chain as printed. pIC50, pKd: −log10 of the molar value. Read-outs that look alike come from different tables or passages of the source.

Columns and labels:
MGL = target: T1, MGL (Rattus norvegicus, UniProt Q8R431); assay: 2-AG accumulation assay in rat brain homogenate; type: biochemical; details: for 2-AG accumulation, % of vehicle control at 1 µM: read-out: Rat Brain 2AG % VehCntrl (%) @ 1 μM
T1 construct: one g rat brain was homogenized using a Polytron homogenizer; from tissue; host or cells: rat brain homogenate
T1 sequence (Q8R431 1-303): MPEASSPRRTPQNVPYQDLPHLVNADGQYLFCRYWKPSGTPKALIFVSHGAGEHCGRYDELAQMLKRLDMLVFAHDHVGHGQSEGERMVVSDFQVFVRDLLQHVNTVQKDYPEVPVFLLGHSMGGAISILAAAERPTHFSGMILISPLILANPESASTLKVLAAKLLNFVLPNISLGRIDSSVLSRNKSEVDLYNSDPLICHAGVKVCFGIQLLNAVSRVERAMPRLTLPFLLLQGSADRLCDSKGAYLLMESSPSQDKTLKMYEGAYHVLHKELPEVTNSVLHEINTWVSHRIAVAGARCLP

mutant MGL = target: T2, mutant MGL (Homo sapiens, UniProt Q99685, L169S/L176S); assay: MGL ThermoFluor assay - mutant; type: binding; details: for Kd: read-out: MGL mutant ThermoFluor qKd (μM) (using qNMR conc.)
T2 sequence (Q99685 1-303 L169S/L176S): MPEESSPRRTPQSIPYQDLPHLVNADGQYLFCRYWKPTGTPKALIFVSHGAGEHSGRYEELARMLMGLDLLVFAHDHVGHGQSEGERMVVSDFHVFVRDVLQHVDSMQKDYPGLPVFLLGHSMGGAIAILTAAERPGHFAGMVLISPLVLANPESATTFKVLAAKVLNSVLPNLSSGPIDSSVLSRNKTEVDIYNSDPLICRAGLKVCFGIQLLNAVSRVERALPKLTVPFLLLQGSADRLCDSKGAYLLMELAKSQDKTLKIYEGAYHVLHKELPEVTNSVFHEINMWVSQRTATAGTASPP
Description: The ThermoFluor (TF) assay is a 384-well plate-based binding assay that measures thermal stability of proteins^1,2. […] TF dye used in all experiments was 1,8-ANS (Invitrogen: A-47). Final TF assay conditions used for MGL studies were 0.07 mg/ml of mutant MGL, 100 μM ANS, 200 mM NaCl, 0.001% Tween-20 in 50 mM PIPES (pH=7.0).
Screening compound plates contained 100% DMSO compound solutions at a single concentration. […] Columns 12 and 24 were used as DMSO reference and contained no compound. […] Following compound dispension, protein and dye solutions were added to achieve the final assay volume of 3 μL.
Bar-coded assay plates were robotically loaded onto a thermostatically controlled PCR-type thermal block and then heated from 40 to 90° C. degrees at a ramp-rate of 1° C./min for all experiments. Fluorescence was measured by continuous illumination with UV light (Hamamatsu LC6), supplied via fiber optics and filtered through a band-pass filter (380-400 nm; >60D cutoff). Fluorescence emission of the entire 384-well plate was detected by measuring light intensity using a CCD camera (Sensys, Roper Scientific) filtered to detect 500±25 nm, resulting in simultaneous and independent readings of all 384 wells. A single image with 20-sec exposure time was collected at each temperature, and the sum of the pixel intensity in a given area of the assay plate was recorded vs temperature and fit to standard equations to yield the Tm^1. • 1.
For some experiments, quantitative NMR spectroscopy (qNMR) was used to measure concentration of the initial 100% DMSO compound solutions and, using the same fitting method, qKd values were determined

[1] = target: T3, purified wild type MGL (wt-MGLL 6H-11-313) (Homo sapiens, UniProt Q99685)
T3 sequence (Q99685 1-303): T2 sequence (Q99685 1-303 L169S/L176S) with S169L, S176L

[2] = rat brain homogenate, compound 1 μM, 2-AG accumulation as percent of vehicle
[3] = ThermoFluor concentration-response, read-out: MGL mutant ThermoFluor Kd
[4] = ThermoFluor, compound concentration measured by qNMR, read-out: MGL mutant ThermoFluor qKd (using qNMR conc.)
[5] = compound concentration measured by qNMR, read-out: MGL mutant ThermoFluor qKd (using qNMR conc.)
[6] = ThermoFluor thermal stability binding assay, read-out: MGL mutant ThermoFluor Kd
[7] = ThermoFluor, compound concentration measured by qNMR

| SMILES | pIC50 [1] | 2-AG accumulation, % of vehicle control at 1 µM (MGL; [2]) [%] | pKd (mutant MGL; [3]) | other results |
| --- | --- | --- | --- | --- |
| O=C(c1nn(-c2ccc(Cl)cc2Cl)c2c1CCC/C2=C\c1ccc(Cl)cc1)N1CC(N2CCN(C(=O)C(F)(F)F)CC2)C1 [Cpd 1020] | 7.20 |  |  | 2-AG accumulation, % of vehicle control at 1 µM (MGL): 135%; pKd (mutant MGL; MGL mutant ThermoFluor Kd, ThermoFluor concentration-response): 5.52 |
| O=C(c1ccc(-n2nc3c(c2-c2cccc(C(F)(F)F)c2)CCC3)cc1)N1CC(N2CCN(C(=O)c3nccs3)CC2)C1 [Cpd 1330] | > 8.30 | 589 | 8.70 | pKd (mutant MGL; [4]): 8.30 |
| O=C(c1ccc(OCc2ccc3ccccc3n2)cc1)N1CC(N2CCN(C(=O)C(F)(F)F)CC2)C1 [Cpd 968] | 7.72 | 360 |  | pKd (mutant MGL; [5]): 5.84 |
| O=C(c1ccc(-c2cccc(C(F)(F)F)c2)cc1)N1CC(N2CCN(C(=O)c3ccc[nH]3)CC2)C1 [Cpd 1325] | > 8.30 | 575 |  | pKd (mutant MGL; [6]): 8.22 |
| CCC(C)(C)c1ccc(C(=O)N2CC(N3CCN(C(=O)c4nccs4)CC3)C2)cc1 [Cpd 887] | > 8.30 | 270 | 8.05 |  |
| CCCCCCCc1ccc(C(=O)N2CC(N3CCN(C(=O)c4nccs4)CC3)C2)cc1 [Cpd 892] | > 8.30 | 948 | 8.15 |  |
| O=C(c1ccc2c(c1)CCN2c1ccc(F)cc1)N1CC(N2CCN(C(=O)c3cscn3)CC2)C1 [Cpd 1081] | 8.05 | 622 |  | pKd (mutant MGL; [5]): 7.72 |
| Cn1nc(-c2cccc(F)c2)c2cc(C(=O)N3CC(N4CCN(C(=O)c5nccs5)CC4)C3)ccc21 [Cpd 1170] | 7.23 | 258 | 7.85 |  |
| O=C(c1ccc(Sc2cccc(Cl)c2)cc1)N1CC(N2CCN(C(=O)C(F)(F)F)CC2)C1 [Cpd 677] | 7.68 | 141 |  | pKd (mutant MGL; [5]): 6.36 |
| Cc1c(C(=O)N2CC(N3CCN(C(=O)c4ccccc4)CC3)C2)sc2ccc(C(F)(F)F)cc12 [Cpd 504] | 8.00 | 178 |  | pKd (mutant MGL; [6]): 7.62 |
| O=C(c1ccc[nH]1)N1CCN(C2CN(C(=O)c3nn(-c4ccc(Cl)cc4Cl)c4c3CCC/C4=C\c3ccc(Cl)cc3)C2)CC1 [Cpd 1019] | 8.22 | 287 | 6.78 | pKd (mutant MGL; [5]): 6.88 |
| Cc1c(C(=O)N2CC(N3CCN(C(=O)c4nccs4)CC3)C2)[nH]c2ccc(Br)cc12 [Cpd 682] | 7.52 | 390 |  | pKd (mutant MGL; [4]): 7.85 |
| O=C(c1cccc(-c2cccc(C(F)(F)F)c2)c1)N1CC(N2CCN(C(=O)c3cscn3)CC2)C1 [Cpd 1188] | 7.03 | 187 | 6.07 |  |
| Cn1ccc2cc(C(=O)N3CC(N4CCN(C(=O)c5nccs5)CC4)C3)cc(-c3cccc(C(F)(F)F)c3)c21 [Cpd 1060] | 8.22 | 671 |  | Kd (mutant MGL; [7]): 0.032 µM |
| O=C(c1ccc2c(ccn2-c2cc(F)c(F)c(F)c2)c1)N1CC(N2CCN(C(=O)c3cscn3)CC2)C1 [Cpd 1055] | 8.30 | 701 |  | Kd (mutant MGL; [7]): 0.02 µM |
| O=C(c1ccc(Oc2cccc(C(F)(F)F)c2)nc1)N1CC(N2CCN(C(=O)c3nccs3)CC2)C1 [Cpd 660] | 8.00 | 410 | 7.19 |  |
| O=C(c1ccc(-c2ccc(C(F)(F)F)s2)cc1)N1CC(N2CCN(C(=O)c3cscn3)CC2)C1 [Cpd 1071, 1-(1,3-Thiazol-4-ylcarbonyl)-4-[1-({4-[5-(trifluoromethyl)thiophen-2-yl]phenyl}carbonyl)azetidin-3-yl]piperazine] | 8.10 | 552 | 7.60 |  |
| Cc1c(C(=O)N2CC(N3CCN(C(=O)c4nccs4)CC3)C2)sc2ccc(-c3ccccc3)cc12 [Cpd 1346, 1-{1-[(3-Methyl-5-phenyl-1-benzothiophen-2-yl)carbonyl]azetidin-3-yl}-4-(1,3-thiazol-2-ylcarbonyl)piperazine] | > 8.30 | 406 | 8.70 |  |
| N#Cc1ccccc1-n1ccc2cc(C(=O)N3CC(N4CCN(C(=O)c5cscn5)CC4)C3)ccc21 [Cpd 1182] | 7.10 | 547 |  | Kd (mutant MGL; [7]): 0.21 µM |
| O=C(c1ccc2c(c1)CCN(C(=O)C1CCC(C(F)(F)F)CC1)C2)N1CC(N2CCN(C(=O)c3nccs3)CC2)C1 (stereo not shown) [Cpd 685] | 7.48 | 756 |  | pKd (mutant MGL; [6]): 7.17 |
| O=C(c1ccc2c(ccn2-c2ccc(C(F)(F)F)cc2)c1)N1CCN(C2CN(C(=O)c3ccc[nH]3)C2)CC1 [Cpd 1120, 5-({4-[1-(1H-Pyrrol-2-ylcarbonyl)azetidin-3-yl]piperazin-1-yl}carbonyl)-1-[4-(trifluoromethyl)phenyl]-1H-indole] | 7.74 | 867 |  | pKd (mutant MGL; [4]): 7.70 |
| O=C(c1ccccc1)N1CCN(C2CN(C(=O)c3ccc(Cc4cccc(C(F)(F)F)c4)cc3)C2)CC1 [Cpd 547] | > 8.30 | 652 | 7.14 |  |
| O=C(c1ccc2c(ccn2-c2ccccn2)c1)N1CC(N2CCN(C(=O)c3nccs3)CC2)C1 [Cpd 1135, 1-Pyridin-2-yl-5-({3-[4-(1,3-thiazol-2-ylcarbonyl)piperazin-1-yl]azetidin-1-yl}carbonyl)-1H-indole] | 7.60 | 884 |  | pKd (mutant MGL; [4]): 7.82 |
| Cc1sc(C(=O)N2CC(N3CCN(C(=O)c4nccs4)CC3)C2)cc1-c1cccc(F)c1 [Cpd 1059] | 8.22 | 507 |  | Kd (mutant MGL; [7]): 0.066 µM |
| Cc1cc(C(=O)N2CC(N3CCN(C(=O)c4nccs4)CC3)C2)sc1-c1ccc(F)cc1 [Cpd 1353] | > 8.30 | 545 |  | Kd (mutant MGL; [7]): 0.018 µM |
| O=C(c1ccc(-c2ccc(Br)cc2)cc1)N1CC(N2CCN(C(=O)c3nccs3)CC2)C1 [Cpd 168, 1-{1-[(4′-Bromobiphenyl-4-yl)carbonyl]azetidin-3-yl}-4-(1,3-thiazol-2-ylcarbonyl)piperazine] | > 8.30 | 813 | 8.00 |  |
| O=C(c1cscn1)N1CCN(C2CN(C(=O)c3ccc(-c4cccc(C(F)(F)F)c4)cc3F)C2)CC1 [Cpd 245, 1-(1-{[3-Fluoro-3′-(trifluoromethyl)biphenyl-4-yl]carbonyl}azetidin-3-yl)-4-(1,3-thiazol-4-ylcarbonyl)piperazine] | 7.79 | 518 |  | 2-AG accumulation, % of vehicle control at 0.1 µM (MGL; rat brain homogenate, compound 0.1 μM, 2-AG accumulation as percent of vehicle, read-out: Rat Brain 2AG % VehCntrl (%) @ 0.1 μM): 224%; 2-AG accumulation, % of vehicle control at 10 µM (MGL; rat brain homogenate, compound 10 μM, 2-AG accumulation as percent of vehicle, read-out: Rat Brain 2AG % VehCntrl (%) @ 10 μM): 829%; pKd (mutant MGL; [6]): 8.02 |
